{"source": "patent US20100298602A1", "about": "“SYSTEMS AND METHODS FOR MICROFLUIDIC CRYSTALLIZATION” (Massachusetts Institute of Technology, priority 2009, published 2010)", "assay": "Seeded continuous crystallization in a microfluidic device; growth rates from optical images", "details": "room temperature, water/ethanol antisolvent", "key": {"[1]": {"details": "Supersaturation S = ln(C/Cs,γ) = 0.319"}}, "data": [{"smiles": "NCC(=O)O", "note": "[α-Glycine, glycine]", "values": [{"measurement": "G<010>,exp growth rate of <010> crystal plane", "setting": "S = ln(C/Cs,α) = 0.33", "value": "0.40 ± 0.25", "unit": "μm/min"}, {"measurement": "G<011>, exp growth rate of <011> crystal plane", "setting": "S = ln(C/Cs,α) = 0.33", "value": "2.22 ± 0.91", "unit": "μm/min"}, {"measurement": "G<010>,exp growth rate of <010> crystal plane", "setting": "S = ln(C/Cs,α) = 0.56", "value": "0.74 ± 0.16", "unit": "μm/min"}, {"measurement": "G<011>, exp growth rate of <011> crystal plane", "setting": "S = ln(C/Cs,α) = 0.56", "value": "3.34 ± 0.43", "unit": "μm/min"}, {"measurement": "G<010>,exp growth rate of <010> crystal plane", "setting": "S = ln(C/Cs,α) = 0.64", "value": "0.66 ± 0.23", "unit": "μm/min"}, {"measurement": "G<011>, exp growth rate of <011> crystal plane", "setting": "S = ln(C/Cs,α) = 0.64", "value": "4.78 ± 1.35", "unit": "μm/min"}]}, {"smiles": "NCC(=O)O", "note": "[β-Glycine, glycine]", "values": [{"measurement": "G<010> experimental growth rate", "setting": "S = ln(C/Cs,α) = 0.30", "value": "194 ± 55", "unit": "μm/min"}, {"measurement": "G<010> experimental growth rate", "setting": "S = ln(C/Cs,α) = 0.39", "value": "235 ± 43", "unit": "μm/min"}, {"measurement": "G<010> experimental growth rate", "setting": "S = ln(C/Cs,α) = 0.47", "value": "250 ± 52", "unit": "μm/min"}]}, {"smiles": "NCC(=O)O", "note": "[γ-Glycine, glycine]", "values": [{"measurement": "G<00-1>,exp growth rate", "setting": "[1]", "value": "4.4 ± 1.8", "unit": "μm/min"}, {"measurement": "G{100, 010},exp growth rate", "setting": "[1]", "value": "3.2 ± 1.6", "unit": "μm/min"}, {"measurement": "G{100, 010},exp growth rate", "setting": "Supersaturation S = ln(C/Cs,γ) = 0.389", "value": "5.5 ± 1.6", "unit": "μm/min"}]}]}
